Measurements published in US12383571B2, “Method for enhancing tyrosinase inhibitory activity” (Jiangnan University, priority 2019, dated 2025).

system: tyrosinase; experiment: Determination of tyrosinase activity by spectrophotometry (L-dopa substrate, 475 nm); format: biochemical; details: single phenolic acid at 5 mM, other conditions as Example 1 (1.0 mg/mL protodioscin, 150° C. 30 min)
Experimental: A determining method of tyrosinase activity: spectrophotometry is employed, 2.8 ml of 2.5 mM L-dopa solution is taken as a substrate, 100 μL of treated inhibitor solution is taken, then 100 μL of 0.2 mg/mL tyrosinase solution is added for incubation at 30° C. for 15 min, and then a change in its light absorption value is measured at 475 nm, and taking tyrosinase activity without an inhibitor as 100%, a calculation formula is as follows: tyrosinase relative activity/%=(B2−B1)/(A2−A1)×100,
Where A1 and A2 represent light absorption values of a blank group at 0 min and 15 min, and B1 and B2 represent light absorption values of a sample at 0 min and 15 min. • 2.

Row | tyrosinase relative activity (%) | Structure (SMILES)
1 | 107.56 | COc1cc(/C=C/C(=O)O)ccc1O [ferulic acid]
2 | 80.69 | O=c1c(O)c(-c2ccc(O)c(O)c2)oc2cc(O)cc(O)c12 [quercetin]
3 | 97.25 | O=C(O)c1cc(O)c(O)c(O)c1 [gallic acid]

More lines, now with the values behind:

Row | Structure (SMILES) | tyrosinase relative activity (%)
4 | COc1cc(-c2oc3cc(O)cc(O)c3c(=O)c2O)ccc1O [isorhamnetin] | 82.52
5 | O=C(O)C=Cc1ccccc1 [cinnamic acid] | 102.32
